The values that follow come from US12577267B2, “Pyrimidine compounds for use as MAP4K1 inhibitors” (GLENMARK SPECIALITY S.A., priority 2021, dated 2026).

The target in the assay is MAP4K-1 enzyme (Homo sapiens, UniProt Q92918). In words: FRET one step binding assay (tracer displacement). To be noted: for inhibition at 1 µM / % Inhibition at 1 μM: 1 μM compound; for inhibition at 10 µM / % Inhibition at 10 μM: 10 μM compound. The procedure:
This is a one step binding assay based on the binding and displacement of the labeled tracer, where compound addition is followed by addition of the anti-GST tagged europium (Eu) as the donor and Alexa Fluor-labeled tracer as the acceptor.
Test compounds were dissolved in dimethylsulfoxide (DMSO) to prepare 10.0 mM stock solutions and diluted to the desired concentration. The final concentration of DMSO in the reaction was 3% (v/v). The assay mixture was prepared by mixing 2 nM of the Eu-Anti-GST Antibody and 5 nM MAP4K-1 enzyme in the Kinase buffer containing 50 mM HEPES (pH 7.5), 10 mM MgCl2, 1 mM EGTA, 0.01% Brij-35 with or without the desired concentration of the compound. The reaction was incubated on ice for 15 min. […] After shaking for 5 min the reaction was further incubated for 1 hour at room temperature and this was kept at 4° C. and read on ARTEMIS reader as per the kit instructions (Thermo). […] The activity was calculated as percent of control reaction. IC50 values were calculated from dose response curve by nonlinear regression analysis using GraphPad Prism software.

Counter-ions that a name gives are not always drawn. Like-named read-outs stand apart in the source and are kept apart here.

Sequence of MAP4K-1 enzyme (Q92918 whole entry): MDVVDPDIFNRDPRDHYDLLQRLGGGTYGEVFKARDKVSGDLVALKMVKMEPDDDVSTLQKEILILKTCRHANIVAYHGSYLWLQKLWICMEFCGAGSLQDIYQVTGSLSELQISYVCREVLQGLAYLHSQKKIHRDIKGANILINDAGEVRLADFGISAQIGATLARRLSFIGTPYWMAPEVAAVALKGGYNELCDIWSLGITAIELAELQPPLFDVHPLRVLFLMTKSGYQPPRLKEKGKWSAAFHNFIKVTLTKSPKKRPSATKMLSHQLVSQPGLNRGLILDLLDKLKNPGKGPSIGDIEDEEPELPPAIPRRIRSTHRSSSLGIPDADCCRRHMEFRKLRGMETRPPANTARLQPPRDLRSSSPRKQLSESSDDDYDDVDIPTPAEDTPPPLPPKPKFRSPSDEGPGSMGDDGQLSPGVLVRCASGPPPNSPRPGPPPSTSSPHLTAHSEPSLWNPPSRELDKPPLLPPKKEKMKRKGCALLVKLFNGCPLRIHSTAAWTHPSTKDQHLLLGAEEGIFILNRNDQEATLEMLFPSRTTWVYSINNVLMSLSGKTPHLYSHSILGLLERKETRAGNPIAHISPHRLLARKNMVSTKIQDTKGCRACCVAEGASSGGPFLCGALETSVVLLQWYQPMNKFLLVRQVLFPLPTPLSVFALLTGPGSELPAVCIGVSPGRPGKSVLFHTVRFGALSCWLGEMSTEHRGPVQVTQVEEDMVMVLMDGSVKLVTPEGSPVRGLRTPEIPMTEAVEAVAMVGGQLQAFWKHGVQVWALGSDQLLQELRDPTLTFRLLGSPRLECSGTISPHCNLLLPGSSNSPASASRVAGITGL

Take `COc1cc2c(cc1Nc1ncc(Cl)c(Nc3ccc(OS(=O)(=O)F)cc3P(C)(C)=O)n1)C(C)N(C)CC2` (racemic) [Example 12, ±4-((5-chloro-2-((6-methoxy-1,2-dimethyl-1,2,3,4-tetrahydroisoquinolin-7-yl)amino)pyrimidin-4-yl)amino)-3-(dimethylphos-phoryl)phenylsulfurofluoridate dihydrochloride]: at 1 µM the inhibition was 87.5% and 10 µM produced 85.9% inhibition. Moreover, where the note is “IC50 (nM)”, the IC50 – broadly, the point on the concentration scale where inhibition reaches its midpoint – was < 50 nM.
Turning to `COc1cc2c(cc1Nc1ncc(Cl)c(Nc3ccc(N(C)S(=O)(=O)F)cc3P(C)(C)=O)n1)C(C)N(C)CC2` (racemic) [Example 44, ±(4-((5-Chloro-2-((6-methoxy-1,2-dimethyl-1,2,3,4-tetrahydroisoquinolin-7-yl)amino)pyrimidin-4-yl)amino)-3-dimethylphosphoryl)phenyl) (methyl)sulfamoylfluoride dihydrochloride], the inhibition (as a rule, the percentage by which the read-out fell short of the control) at 1 µM came to 81.6% and the inhibition at 10 µM came to 79.6%. Further, for the setting “IC50 (nM)”, the IC50 was < 50 nM.
The molecule `COc1cc2c(cc1Nc1ncc(Cl)c(Nc3ncc(OS(=O)(=O)F)cc3P(C)(C)=O)n1)C(C)N(C)CC2` (single isomer, unassigned; isomer 1) [Example 23, 6-((5-Chloro-2-((6-methoxy-1,2-dimethyl-1,2,3,4-tetrahydroisoquinolin-7-yl)amino)pyrimidin-4-yl)amino)-5-(dimethylphosphory)pyridin-3-yl sulfofluoridate dihyrochloride (Isomer 1)] registered an inhibition at 1 µM of 86.1% and an inhibition at 10 µM of 89.6%. This molecule also yielded an IC50 (IC50 (nM)) of 50 to 100 nM.
In turn, `COc1cc2c(cc1Nc1ncc(Cl)c(Nc3ccc(OS(=O)(=O)F)cc3P(C)(C)=O)n1)C(C)N(C)CC2` (single isomer, unassigned; isomer 1) [Example 29, 4-((5-Chloro-2-((6-methoxy-1,2-dimethyl-1,2,3,4-tetrahydroisoquinolin-7-yl)amino)pyrimidin-4-yl)amino)-3-(dimethylphosphoryl)phenyl sulfofluoridate dihydrochloride (Isomer 1)] yielded an inhibition at 1 µM of 76.5% and an inhibition at 10 µM of 76.9%. The half-maximal inhibitory concentration (IC50) (IC50 (nM)) was < 50 nM.
The corresponding values for `COc1cc2c(cc1Nc1ncc(Cl)c(Nc3cc(OS(=O)(=O)F)ccc3P(C)(C)=O)n1)C(C)N(C)CC2` (single isomer, unassigned; isomer 1) [Example 31, 3-((5-Chloro-2-((6-methoxy-1,2-dimethyl-1,2,3,4-tetrahydroisoquinolin-7-yl)amino)pyrimidin-4-yl)amino)-4-(dimethylphosphoryl)phenyl sulfofluoridate dihydrochloride (Isomer 1)] are 84.4%, 89% and < 50 nM.
`COc1cc2c(cc1Nc1ncc(Cl)c(Nc3ccc(OS(=O)(=O)F)cc3P(C)(C)=O)n1)CN(C)C(C)C2` (single isomer, unassigned; isomer 1) [Example 33, 4-((5-Chloro-2-((6-methoxy-2,3-dimethyl-1,2,3,4-tetrahydroisoquinolin-7-yl)amino)pyrimidin-4-yl)amino)-3-(dimethylphosphoryl)phenyl sulfofluoridate dihydrochloride (Isomer 1)] gave an inhibition at 1 µM of 92.8% and an inhibition at 10 µM of 87.8%. Further, the concentration for half-maximal inhibition (IC50) (IC50 (nM)) was < 50 nM.
`COc1cc2c(cc1Nc1ncc(Cl)c(Nc3cc(OS(=O)(=O)F)ccc3P(C)(C)=O)n1)CN(C)C(C)C2` (single isomer, unassigned; isomer 1) [Example 35, 3-((5-Chloro-2-((6-methoxy-2,3-dimethyl-1,2,3,4-tetrahydroisoquinolin-7-yl)amino)pyrimidin-4-yl)amino)-4-(dimethylphosphoryl)phenyl sulfofluoridate dihydrochloride (Isomer 1)]: at 1 µM the inhibition was 83% and 10 µM produced 79.1% inhibition. Moreover, the IC50 (IC50 (nM)) is < 50 nM.
For the molecule `COc1cc2c(cc1Nc1ncc(Cl)c(Nc3ncc(OS(=O)(=O)F)cc3P(C)(C)=O)n1)C(C)N(C)CC2` (single isomer, unassigned; isomer 2) [Example 24, 6-((5-Chloro-2-((6-methoxy-1,2-dimethyl-1,2,3,4-tetrahydroisoquinolin-7-yl)amino)pyrimidin-4-yl)amino)-5-(dimethylphosphoryl)pyridin-3-yl sulfofluoridate dihydrochloride (Isomer 2)], the % Inhibition (usually the change of the read-out against control, counted positive when it falls) at 1 μM (1 µM) turned out to be 86.68%. The “% Inhibition at 10 μM” value (10 µM) turned out to be 85.52%. In addition, for the setting “IC50 (nM)”, the IC50 is < 50 nM.
In the case of `COc1cc2c(cc1Nc1ncc(Cl)c(Nc3cc(OS(=O)(=O)F)ccc3P(C)(C)=O)n1)C(C)N(C)CC2` (single isomer, unassigned; isomer 2) [Example 32, 3-((5-Chloro-2-((6-methoxy-1,2-dimethyl-1,2,3,4-tetrahydroisoquinolin-7-yl)amino)pyrimidin-4-yl)amino)-4-(dimethylphosphoryl)phenyl sulfofluoridate dihydrochloride (Isomer 2)], the IC50 is < 50 nM. The “% Inhibition at 1 μM” value (1 µM) came to 84.51%. In addition, where the note is “10 µM”, the “% Inhibition at 10 μM” value is 89.25%.
Consider `COc1cc2c(cc1Nc1ncc(Cl)c(Nc3ccc(OS(=O)(=O)F)cc3P(C)(C)=O)n1)CN(C)C(C)C2` (single isomer, unassigned; isomer 2) [Example 34, 4-((5-Chloro-2-((6-methoxy-2,3-dimethyl-1,2,3,4-tetrahydroisoquinolin-7-yl)amino)pyrimidin-4-yl)amino)-3-(dimethylphosphoryl)phenyl sulfofluoridate dihydrochloride (Isomer 2)], for which the IC50 is < 50 nM. The “% Inhibition at 1 μM” value (1 µM) is recorded as 84.26%. In addition, the “% Inhibition at 10 μM” value (10 µM) is on record as 86.64%.
The corresponding values for `COc1cc2c(cc1Nc1ncc(Cl)c(Nc3cc(OS(=O)(=O)F)ccc3P(C)(C)=O)n1)CN(C)C(C)C2` (single isomer, unassigned; isomer 2) [Example 36, 3-((5-Chloro-2-((6-methoxy-2,3-dimethyl-1,2,3,4-tetrahydroisoquinolin-7-yl)amino)pyrimidin-4-yl)amino)-4-(dimethylphosphoryl)phenyl sulfofluoridate dihydrochloride (Isomer 2)] are < 50 nM, 85.29% and 83.76%.
`COc1cc2c(cc1Nc1ncc(Cl)c(Nc3ccc(O)cc3P(C)(C)=O)n1)CN(C)CC2` [Example 1, (2-((5-Chloro-2-((6-methoxy-2-methyl-1,2,3,4-tetrahydroisoquinolin-7-yl)amino)pyrimidin-4-yl)amino)-5-hydroxyphenyl)dimethylphosphineoxide dihydrochloride] gave an inhibition at 1 µM of 87.2% and an inhibition at 10 µM of 86.5%. The half-inhibitory concentration (IC50) (read-out: IC50) was < 50 nM.
In turn, `COc1cc2c(cc1Nc1ncc(C(N)=O)c(Nc3ccc(OS(=O)(=O)F)cc3P(C)(C)=O)n1)CN(C)CC2` [Example 3, 4-((5-Carbamoyl-2-((6-methoxy-2-methyl-1,2,3,4-tetrahydroisoquinolin-7-yl)amino)pyrimidin-4-yl)amino)-3-(dimethylphosphoryl)phenyl sulfurofluoridate dihydrochloride] gave an inhibition at 1 µM of 85.6% and an inhibition at 10 µM of 91.2%. Also, the 50% inhibitory concentration (IC50) (IC50 (nM)) is < 50 nM.
In turn, `[2H]C([2H])([2H])N1CCc2cc(OC)c(Nc3ncc(Cl)c(Nc4ccc(OS(=O)(=O)F)cc4P(C)(C)=O)n3)cc2C1` [Example 4, 4-((5-Chloro-2-((6-methoxy-2-(methyl-d3)-1,2,3,4-tetrahydroisoquinolin-7-yl)amino)pyramidin-4-yl)amino)-3-(dimethylphosphoryl) phenylsulfurofluoridate dihydrochloride] yielded an inhibition at 1 µM of 72.9% and an inhibition at 10 µM of 78.4%. Besides, the half-inhibitory concentration (IC50) (IC50 (nM)) was < 50 nM.
As to `Cl.Cl.[2H]C([2H])([2H])Oc1cc2c(cc1Nc1ncc(Cl)c(Nc3ccc(OS(=O)(=O)F)cc3P(C)(C)=O)n1)CN(C)CC2` [Example 5, 4-((5-Chloro-2-((6-(methoxy-d3)-2-methyl-1,2,3,4-tetrahydroisoquinolin-7-yl)amino)pyrimidin-4-yl)amino)-3-(dimethylphosphoryl)phenyl sulfurofluoridate dihydrochloride], the inhibition at 1 µM came to 78.1% and the inhibition at 10 µM was 82.5%. In addition, the half-inhibitory concentration (IC50) (IC50 (nM)) is < 50 nM.
The corresponding values for `[2H]C([2H])([2H])Oc1cc2c(cc1Nc1ncc(Cl)c(Nc3ccc(OS(=O)(=O)F)cc3P(C)(C)=O)n1)CN(C([2H])([2H])[2H])CC2` [Example 6, 4-((5-Chloro-2-((6-methoxy-d3)-2-(methyl-d3)-1,2,3,4-tetrahydroisoquinolin-7-yl)amino)pyrimidin-4-yl)amino)-3-(dimethylphosphoryl)phenyl sulfurofluoridate dihydrochloride] are 80%, 82% and < 50 nM.
Take `COc1cc2c(cc1Nc1ncc(Cl)c(Nc3ccc(OS(=O)(=O)F)cc3P(C)(C)=O)n1)CN(CC(F)(F)F)CC2.Cl.Cl` [Example 7, 4-((5-Chloro-2-((6-methoxy-2-(2,2,2-trifluoroethyl)-1,2,3,4-tetrahydroisoquinolin-7-yl)amino)pyrimidin-4-yl)amino)-3-(dimethyllphosphoryl)phenyl sulfurofluoridate dihydrochloride]: the “% Inhibition at 1 μM” value is given as 37.71% and the “% Inhibition at 10 μM” value was determined as 69.74%.
